Reference: US20060104944A1, “Activators and inhibitors of protease activated receptor2 (PAR2) and methods of use” (priority 2004, published 2006)
pIC50: −log10 of the molar value. No end group written: not given here. *: point of attachment. tc = trans-cinnamoyl N-cap, O=C(/C=C/c1ccccc1)*; code O = not defined here

Tests used:
PAR-2 [1] = target: T1, PAR-2 (Homo sapiens, UniProt P55085); details: in words; cited from earlier work
T1 sequence (P55085 26-397): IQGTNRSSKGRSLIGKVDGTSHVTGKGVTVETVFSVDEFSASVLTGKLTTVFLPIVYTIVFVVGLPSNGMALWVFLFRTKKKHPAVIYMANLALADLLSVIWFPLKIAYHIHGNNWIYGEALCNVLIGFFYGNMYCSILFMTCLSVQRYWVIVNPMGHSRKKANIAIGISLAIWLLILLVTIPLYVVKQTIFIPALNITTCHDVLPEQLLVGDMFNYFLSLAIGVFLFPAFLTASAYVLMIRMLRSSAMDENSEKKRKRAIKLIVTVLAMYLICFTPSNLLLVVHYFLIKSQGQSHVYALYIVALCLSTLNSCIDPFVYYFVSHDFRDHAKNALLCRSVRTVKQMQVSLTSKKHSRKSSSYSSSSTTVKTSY

PAR-1 [2] = target: T2, PAR-1 (Homo sapiens, UniProt P25116); details: PAR-1 antagonist, variety of bioassays; cited from earlier work
T2 sequence (P25116 22-425): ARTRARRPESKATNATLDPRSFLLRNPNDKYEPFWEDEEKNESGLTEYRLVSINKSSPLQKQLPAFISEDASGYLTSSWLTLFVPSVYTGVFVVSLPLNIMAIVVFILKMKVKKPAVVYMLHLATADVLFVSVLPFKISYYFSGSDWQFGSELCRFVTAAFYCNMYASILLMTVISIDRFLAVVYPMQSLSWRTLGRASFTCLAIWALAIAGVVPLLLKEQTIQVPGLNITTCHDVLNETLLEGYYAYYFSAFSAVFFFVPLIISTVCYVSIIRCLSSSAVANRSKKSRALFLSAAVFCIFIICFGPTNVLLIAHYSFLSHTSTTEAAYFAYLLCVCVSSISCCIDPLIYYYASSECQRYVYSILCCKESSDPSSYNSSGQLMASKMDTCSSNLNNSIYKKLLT

[3] = system: chick chorioallantoic membrane (CAM); assay: Neovascularization in the chick chorioallantoic membrane (CAM) model; type: in vivo; details: Table 5; for Mean % Inhibition ± SEM: inhibition of PAR-2 (SEQ ID NO: 3, 0.3 ug/ml) stimulated angiogenesis, inhibitor doses as E12
PAR-2 [4] = target: T1, PAR-2; details: at PAR-2; in words; cited from earlier work
[5] = system: isolated blood vessel preparations; details: in words, cited from earlier work
[6] = system: chick chorioallantoic membrane (CAM); assay: Neovascularization in the chick chorioallantoic membrane (CAM) model; type: in vivo; details: for Branch Points ± SEM: Table 3, agent alone: FGF2 1 ug/ml, VEGF 2 ug/ml, PAR-1 3 ug, PAR-2 0.3 ug, n = 8; for Mean Number of Branch Points ± SD: Table 4, agent alone: FGF2 1.0 μg, PAR2 agonist 5.0 μg, TF/factor VIIa, N = 16; for PAR2-induced angiogenesis in the CAM model: in words, FIG. 3, Table 5
Description: In vivo neovascularization was examined by the method previously described by Auerbach et al. (Auerbach et al., J. Dev. Biol., 41:391-394 (1974), which is hereby incorporated by reference in its entirety). Ten-day old embryos were purchased from Spafas, Inc. (Preston, Conn.) and were incubated at 37° C. with 55% relative humidity. In the dark with the help of a candling lamp, a small hole was punctured in the shell concealing the air sac with a hypodermic needle. A second hole was punctured in the shell on the broadside of the egg directly over an avascular portion of the embryonic membrane, as observed during candling. A false air sac was created beneath the second hole by the application of negative pressure to the first hole, which caused the chorioallantoic membrane (CAM) to separate from the shell. A window, approximately 1.0 cm^2, was cut in the shell over the dropped CAM with the use of a small crafts grinding wheel (Dremel, Division of Emerson Electric Company Racine, Wisconsin) which allowed direct access to the underlying CAM. Filter disks of #1 filter paper (Whatman International, United Kingdom) were soaked in 3 mg/ml cortisone acetate (Sigma, St. Louis, Mo.) in a solution of 95% ethanol and water and subsequently air dried under sterile conditions. FGF2 (Life Technologies, Gaithersburg, Md.) was used to grow vessels on the CAMs of 10 day old chick embryos. Sterile filter disks adsorbed with FGF2 dissolved in PBS at 1 μg/ml were placed on growing CAMs. […] At 24 h, test compounds or control vehicle was added directly to CAM topically.
(§1) CAM tissue directly beneath FGF2-saturated filter disk was resected from embryos treated 48 hours prior with test compound or control. Tissues were washed three times with PBS. Sections were placed in a 35-mm petri dish (Nalge Nunc, Rochester, N.Y.) and examined under a SV6 stereomicroscope (Karl Zeiss, Thornwood, N.Y.) at 50× magnification. Digital images of CAM sections adjacent to filters were collected using a 3-CCD color video camera system (Toshiba America, New York, N.Y.) and analyzed using Image-Pro Plus software (Media Cybernetics, Silver Spring, Md.).
as §1, with “48 h” for “48 hours”, “with” for “with test”, “analyzed with the” for “analyzed using”

[7] = system: Human umbilical vein endothelial cells (HUVEC); assay: Endothelial cell tube formation on Matrigel; type: cell-based; details: agent alone; FGF2 0.1 μg, PAR2 agonist 0.25 μg; n = 3
Description: Differentiation by endothelial cells was examined using a method developed by Grant et al. (Grant et al., In Vitro Cell Dev. Biol., 27A:327-336 (1991), which is hereby incorporated by reference in its entirety). Matrigel® matrix, phenol-red free (commercially available from Becton Dickinson, Bedford, Mass.) was thawed overnight at 4° C. Using cold pipette tips, 3.0 mg/well of Matrigel® matrix was placed in a cold twenty-four-multiwell plate (Falcon). Matrigel® matrix was allowed to polymerize during incubation at 37° C. for 30 minutes.
Human umbilical vein endothelial cells (HUVEC) were maintained at 37° C. with 5% CO2 and 95% humidity in endothelial cell growth medium with 2% fetal bovine serum (EGM). The tube assay was performed in endothelial cell basal medium (EBM) supplemented with 0.5% bovine serum albumin (BSA) and 1:100 diluted Insulin-Transferrin-Selenium-G supplement (I-T-Se, 100×). HUVEC were trypsinized, centrifuged, and, subsequently, washed twice in phosphate buffered saline (PBS). […] Digital images of micro-titer well sections were collected using a DKC5000 3-CCD color video camera system (Toshiba America, New York, N.Y.) and analyzed using Image-Pro Plus software (Media Cybernetics, Silver Spring, Md.). The area and major axis length of stained cells having a tubular morphology was measured on the Matrigel® matrix surface (Becton Dickinson, Bedford, Pa.).

[8] = system: Human dermal micro-vascular endothelial cells (HDMEC); assay: In vitro 3D sprout angiogenesis (vessel tube length) assay; type: cell-based; details: agent alone, 1 ug
Description: Culture of HDMEC on micro-carrier beads: 80% confluent HDMEC (Passage 5-10) were mixed with gelatin-coated Cytodex-3 beads with a ratio of 40 cells per bead. Suspend cells and beads (150-200 beads per well for 24-well plate) with 5 ml EBM+15% normal human serum, mix gently every one hour for first four hours, then leave the mixture culture in CO2 incubator overnight. The next morning, add 10 ml of fresh EBM+15% HS and culture for another three hours. Before experiments, check the culture of EC-beads. Add 500 μl of PBS in a well of 24-well plate, take 100 ul of the EC-bead culture solution, and add it to the PBS, observe and count the number of beads, calculate the concentration of EC-beads. The EC-beads are good for experiments for 48 hours.
Prepare fibrinogen solution (1 mg/ml) in EBM medium with or without angiogenesis factors or testing factors. For positive control, use 30 ng/ml VEGF+25 ng/ml FGF2. Wash EC-beads with EBM medium for two times and add EC-beads to fibrinogen solution. For each condition, do experiment in triplicates. Mix the EC-beads in fibrinogen solution gently and add 2.5 μl human thrombin (0.05 U/μl) in 1 ml fibrinogen solution, immediately transfer 300 ul to each well of 24-well plate. The fibrinogen solution will polymerize in 5-10 minutes, after 20 minutes, add EBM+20% normal human serum+10 μg/ml Aprotinin. Incubate the plate in CO2 incubator. […]

rat aorta = details: in words; cited from earlier work
PAR-1 [9] = target: T2, PAR-1; details: at PAR-1; in words; cited from earlier work
[10] = PAR-2 (SEQ ID NO: 3, 0.3 ug/ml) + inhibitor: XT199 10 ug, anti-VII/VIIa 3 ug, PD98059 5 ug, Hirudin 1 U, PAR-2 mAb 3 ug, anti-TF mAb 2 ug

## NCC[C@H](NC(=O)[C@H](Cc1ccc(F)c(F)c1)NC(=O)Nc1ccc2c(CN3CCCC3)cn(Cc3c(Cl)cccc3Cl)c2c1)C(=O)NCc1ccccc1 [RWJ-56110]
PAR-2 [1]
  activity as a PAR-2 antagonist: inactive
PAR-1 [2]
  pIC50: 6.30 to 7.00

## HOOC-L-I-G-R-L-O-NH2 (LIGRL-{code O-NH2}; reading uncertain; also: 'HOOC-' written at N-terminus) [SEQ ID NO: 3]
[3]; PAR-2 agonist alone, 0.3 ug/ml, n = 8
  Mean Branch points ± SEM: 176 ± 14
[3]; PAR-2 agonist alone, 0.3 ug/ml, n = 8, listed as PAR-2
  Mean Branch points ± SEM: 186 ± 17

## LSIGRL [LSIGRL-NH2, PAR2 antagonist]
PAR-2 [4]
  agonistic activity: lack agonistic activity

## tc-LIGRLO (tc-LIGRL-{code O}; reading uncertain; also: printed as tc-LIGRLO)
[5]; compared with SLIGRL
  activity in the relaxation assay: equally active
[5]
  contraction: does not cause contraction

## FGF2: human fibroblast growth factor basic
[6]; 1 μg of FGF2
  increase in angiogenesis index: 2-3 fold
[6]
  Branch Points ± SEM: 182 ± 11
  Mean Number of Branch Points ± SD: 198 ± 14
[7]
  Mean Endothelial tube length (mm) ± SD: 64 ± 5 mm

## TFLLRN [SEQ ID NO: 6, PAR1 agonist peptide used for comparison]
[6]
  Branch Points ± SEM: 101 ± 7
[8]
  Vessel Length(mm) ± SEM: 0.88 ± 0.08 mm

## FSLLRY [FSLLRY-NH2, PAR2 antagonist]
Rat aorta
  trypsin relaxant activity: antagonize
PAR-1 [9]
  agonistic activity: lack agonistic activity

## VEGF
[6]
  Branch Points ± SEM: 168 ± 10

## HOOC-S-L-I-G-K-V-NH2 (SLIGKV-NH2; also: 'HOOC-' written at N-terminus) [SEQ ID NO: 5]
[6]
  Branch Points ± SEM: 197 ± 15
  Mean Number of Branch Points ± SD: 205 ± 8
[8]
  Vessel Length(mm) ± SEM: 1.39 ± 0.28 mm

## COc1cccc(-c2cc(=O)c3ccccc3o2)c1N [PD98059]
[6]
  PAR2-induced angiogenesis in the CAM model: blocked
[3]; [10]
  Mean Branch points ± SEM: 102 ± 9
[3]
  Mean % Inhibition ± SEM: 88 ± 12%

## Hirudin
[6]
  PAR2-induced angiogenesis in the CAM model: not
[3]; [10]
  Mean Branch points ± SEM: 174 ± 9
[3]
  Mean % Inhibition ± SEM: 3 ± 8%

## HOOC-S-L-I-G-R-L-NH2 (SLIGRL-NH2; also: 'HOOC-' written at N-terminus) [SEQ ID NO: 4]
[7]
  Mean Endothelial tube length (mm) ± SD: 58 ± 4 mm
